{"source": "patent US20260373136A1", "about": "“A NOVEL DOSAGE REGIMEN USING LOW DOSES OF DONEPEZIL OR DERIVATIVE THEREOF FOR PREVENTING OR TREATING A COMPULSIVE DISORDER” (SORBONNE UNIVERSITE, priority 2022, published 2026)", "key": {"[1]": {"test": "Yale-Brown Obsessive Compulsive Scale questionnaire (Y-BOCS) before and after treatment", "format": "in vivo, human", "conditions": "for OCD symptoms: Y-BOCS post vs pre-treatment; for Y-BOCS score, post treatment: 0-7 subclinical, 8-15 mild, 16-23 moderate, 24-31 severe, 32-40 extreme symptoms", "procedure": "(§1) 6 anorexic patients were treated with donepezil: 5 of them with a daily dose according to the present invention and 1 with a higher dose (comparative).\n(§2) The studies were led in hospital. Each case is presented below.\n(§3) The treatment started with a daily dose of donepezil of 0.5 mg for 10 days then the daily dose was increased to 1 mg for 7 days then increased to 1.5 mg for 71 days (2 months and 10 days) then increased to 2 mg for 22 days and then increased to 2.5 mg and remains on this dose for 4 months and 18 days.\nPatient #2 obsessive-compulsive disorders (OCD) symptoms have also been evaluated with the Yale-Brown Obsessive Compulsive Scale questionnaire (Y-BOCS) (available on https://pcl.psychiatry.uw.edu/wp-content/uploads/2021/12/YBOCS.pdf) before and after the treatment. The following scores have been obtained:\nThe score obtained with questionnaire Y-BOCS is classified as follows: • 0-7: subclinical; 8-15: mild symptoms; 16-23: moderate symptoms; 24-31: severe symptoms; 32-40: extreme symptoms\n(§4) The treatment started with a daily dose of donepezil of 0.5 mg for 13 days then the daily dose was increased to 0.75 mg for 9 days then increased to 1 mg for 17 days and then increased to 1.5 mg and remained at this dosage for a month then stopped for two months and then restarted with a daily dose of 1.5 mg that remains within 1 month and then discontinued.\nPatient #4 obsessive-compulsive disorders (OCD) symptoms have also been evaluated with questionnaire Y-BOCS-before and after the treatment. The following scores have been obtained:\n(§5) The treatment started with a daily dose of donepezil of 0.5 mg for 8 days and then the daily dose was increased to 1 mg for 9 days and then increased to 1.67 mg for 62 days and then increased to 2.5 mg.\nPatient #6 obsessive-compulsive disorders (OCD) symptoms have also been evaluated with questionnaire Y-BOCS-before and after the treatment."}, "[2]": {"test": "Eating Disorder Examination Questionnaire (EDE-q) before and after treatment", "format": "in vivo, human", "parameters": "scale not given here", "conditions": ">=4 clinical range, >2.8 possible clinically significant pathology", "procedure": "as §1, §2, §4\nThe eating disorders of patient #4 before and after treatment have been evaluated with the Eating Disorder Examination Questionnaire (EDE-q) (available on https://www.corc.uk.net/outcome-experience-measures/eating-disorder-examination-questionnaire-ede-q/) which has given the following results:\nas §5\nThe eating disorders of patient #6 before and after treatment have been evaluated with EDE-q questionnaire which has given the following results: […]"}, "[3]": {"test": "Patient Health Questionnaire (PHQ-9) before and after treatment", "format": "in vivo, human", "conditions": "for depression symptoms: PHQ-9 post vs pre-treatment; for Patient Health Questionnaire (PHQ-9) score, post treatment: 5-9 mild, 10-14 moderate, 15-19 moderately severe, 20-27 severe depression", "procedure": "as §1, §2, §3\nPatient #2 depression symptoms have also been evaluated with Patient Health Questionnaire (PHQ-9) (available on https://med.stanford.edu/fastlab/research/imapp/msrs/_jcr_content/main/accordion/accor dion_content3/download_256324296/file.res/PHQ9%20id%20date%2008.03.pdf) before and after the treatment. The following scores have been obtained:\nThe score obtained with questionnaire PHQ-9 is classified as follows: • 5-9: mild depression; 10-14: moderate depression; 15-19: moderately severe depression; • 20-27: severe depression\nas §4\nPatient #4 depression symptoms have also been evaluated with questionnaire PHQ-9 before and after the treatment. The following scores have been obtained:\nThe score obtained with questionnaire PHQ-9 is classified as follows: • 5-9: mild depression; 10-14: moderate depression; 15-19: moderately severe depression; 20-27: severe depression\nas §5\nPatient #6 depression symptoms have also been evaluated with questionnaire PHQ-9 before and after the treatment."}, "[4]": {"test": "Generalized Anxiety Disorders Assessment (GAD-7) questionnaire before and after treatment", "format": "in vivo, human", "conditions": "for anxiety: GAD-7 post vs pre-treatment; for General anxiety disorder (GAD-7) score, post treatment: 5-9 mild, 10-14 moderate, 15-21 severe anxiety", "procedure": "as §1, §2, §3\nPatient #2 anxiety has also been evaluated with Generalized Anxiety Disorders Assessment (GAD-7) questionnaire (available on https://adaa.org/sites/default/files/GAD-7_Anxiety-updated_O.pdf) before and after the treatment. The following scores have been obtained:\nThe score obtained with questionary GAD-7 is classified as follows: • 5-9: mild anxiety; 10-14: moderate anxiety; 15-21: severe anxiety\nas §4\nPatient #4 anxiety has also been evaluated with questionnaire GAD-7 before and after the treatment. The following scores have been obtained:\nas §5\nPatient #6 anxiety has also been evaluated with questionnaire GAD-7 before and after the treatment. The following scores have been obtained:\nThe score obtained with questionnaire GAD-7 is classified as follows: • 5-9: mild anxiety; 10-14: moderate anxiety; 15-21: severe anxiety"}, "[5]": {"conditions": "Patient #2, daily dose 0.5-2.5 mg"}, "[6]": {"conditions": "Patient #4, daily dose 0.5 to 1.5 mg"}, "[7]": {"conditions": "Patient #6, daily dose 0.5 mg to 2.5 mg"}, "[8]": {"conditions": "Patient #6, daily dose 0.5 mg to 2.5 mg, pre-treatment 3.8"}}, "note": "Read-outs that look alike come from different tables or passages of the source."}
{"smiles": "COc1cc2c(cc1OC)C(=O)C(CC1CCN(Cc3ccccc3)CC1)C2", "note": "(stereo not shown) [donepezil]", "values": [{"measurement": "OCD symptoms", "setting": "[1]; [5]", "result": "diminution of OCD symptoms"}, {"measurement": "Y-BOCS score, post treatment", "setting": "[1]; Patient #2, daily dose 0.5-2.5 mg, pre-treatment score 32", "result": 22}, {"measurement": "OCD symptoms", "setting": "[1]; [6]", "result": "diminution of OCD symptoms"}, {"measurement": "Y-BOCS score, post treatment", "setting": "[1]; Patient #4, daily dose 0.5 to 1.5 mg, pre-treatment score 28", "result": 16}, {"measurement": "OCD symptoms", "setting": "[1]; [7]", "result": "diminution of OCD symptoms"}, {"measurement": "Y-BOCS score, post treatment", "setting": "[1]; Patient #6, daily dose 0.5 mg to 2.5 mg, pre-treatment score 28", "result": 17}, {"measurement": "EDE-q Restraint score, post treatment", "setting": "[2]; Patient #4, daily dose 0.5 to 1.5 mg, pre-treatment 4", "result": 2}, {"measurement": "EDE-q Eating concerns score, post treatment", "setting": "[2]; Patient #4, daily dose 0.5 to 1.5 mg, pre-treatment 4.6", "result": 2.2}, {"measurement": "EDE-q Global scores, post treatment", "setting": "[2]; Patient #4, daily dose 0.5 to 1.5 mg, pre-treatment 4.9", "result": 3.0}, {"measurement": "EDE-q Weight concerns score, post treatment", "setting": "[2]; Patient #4, daily dose 0.5 to 1.5 mg, pre-treatment 5.4", "result": 3.4}, {"measurement": "EDE-q Shape concerns score, post treatment", "setting": "[2]; Patient #4, daily dose 0.5 to 1.5 mg, pre-treatment 5.8", "result": 4.4}, {"measurement": "EDE-q Eating concerns score, post treatment", "setting": "[2]; Patient #6, daily dose 0.5 mg to 2.5 mg, pre-treatment 0.6", "result": 0.4}, {"measurement": "EDE-q Global scores, post treatment", "setting": "[2]; Patient #6, daily dose 0.5 mg to 2.5 mg, pre-treatment 3.4", "result": 2.6}, {"measurement": "EDE-q Restraint score, post treatment", "setting": "[2]; [8]", "result": 2.8}, {"measurement": "EDE-q Weight concerns score, post treatment", "setting": "[2]; [8]", "result": 3.2}, {"measurement": "EDE-q Shape concerns score, post treatment", "setting": "[2]; Patient #6, daily dose 0.5 mg to 2.5 mg, pre-treatment 5.4", "result": 4.1}, {"measurement": "depression symptoms", "setting": "[3]; [5]", "result": "diminution of their depression symptoms"}, {"measurement": "Patient Health Questionnaire (PHQ-9) score, post treatment", "setting": "[3]; Patient #2, daily dose 0.5-2.5 mg, pre-treatment score 10", "result": 4}, {"measurement": "depression symptoms", "setting": "[3]; [6]", "result": "diminution of their depression symptoms"}, {"measurement": "Patient Health Questionnaire (PHQ-9) score, post treatment", "setting": "[3]; Patient #4, daily dose 0.5 to 1.5 mg, pre-treatment score 17", "result": 5}, {"measurement": "depression symptoms", "setting": "[3]; [7]", "result": "diminution of their depression symptoms"}, {"measurement": "Patient Health Questionnaire (PHQ-9) score, post treatment", "setting": "[3]; Patient #6, daily dose 0.5 mg to 2.5 mg, pre-treatment score 6", "result": 2}, {"measurement": "improvement and severe side effects", "setting": "Other patients (#2-#6), 0.5-2.5 mg PO OD (conclusion)", "result": "improved without severe side effects"}, {"measurement": "blood pressure", "setting": "Patient #1 (comparative), 5 mg daily per os, in local emergency department, previously normal 120/70 mmHg, no other cause found, donepezil discontinued", "result": "183/124"}, {"measurement": "side-effects", "setting": "Patient #1 (comparative), 5 mg daily per os, within 5 days, responded to over-the-counter pain medications", "result": "drowsiness and headaches"}, {"measurement": "blood pressure", "setting": "Patient #1 (comparative), 5 mg daily per os, within a week, previously normal 120/70 mmHg", "result": "175/120"}, {"measurement": "blood pressure", "setting": "Patient #1 (comparative), next few weeks after discontinuing donepezil (5 mg daily), previously normal 120/70 mmHg", "result": "140/95"}, {"measurement": "severe side effect", "setting": "Patient #1, 5 mg PO OD (conclusion)", "result": "severe side effect (high blood pressure and severe headache)"}, {"measurement": "blood pressure", "setting": "[5]", "result": "remained unaffected"}, {"measurement": "other side-effects", "setting": "[5]", "result": "no other side-effects"}, {"measurement": "side effects", "setting": "low dose between 0.5 and 2.5 mg/day, clinical cases overall (conclusion)", "result": "without causing any side effects"}, {"measurement": "anxiety", "setting": "[4]; [5]", "result": "diminution of their anxiety"}, {"measurement": "General anxiety disorder (GAD-7) score, post treatment", "setting": "[4]; Patient #2, daily dose 0.5-2.5 mg, pre-treatment score 16", "result": 12}, {"measurement": "anxiety", "setting": "[4]; [6]", "result": "diminution of their anxiety"}, {"measurement": "General anxiety disorder (GAD-7) score, post treatment", "setting": "[4]; Patient #4, daily dose 0.5 to 1.5 mg, pre-treatment score 16", "result": 9}, {"measurement": "anxiety", "setting": "[4]; [7]", "result": "strong diminution of their anxiety"}, {"measurement": "General anxiety disorder (GAD-7) score, post treatment", "setting": "[4]; Patient #6, daily dose 0.5 mg to 2.5 mg, pre-treatment score 15", "result": 3}]}
